Data set [1] has as its system single-stranded DNA (5′-d(agcaaaaaacgc)-3′; SEQ ID NO: 7) (a sense strand). Put plainly: Melting temperature (Tm), capability of forming double strand with single-stranded DNA. It counts as binding. As to conditions: for capability of forming a double strand with single-stranded DNA versus single-stranded RNA: antisense strand as shown in SEQ ID NO: 1, modified with one base; for Tm: pH 7.2.

The subject of data set [2] is single-stranded RNA (5′-r(agcaaaaaacgc)-3′; SEQ ID NO: 8) (a sense strand). In kind it is binding. As to conditions: pH 7.2.

[NMe] = code of the source, not defined here; [(B)β] = from compound B-13; [(C)Hβ] = from compound C-8; d = 2'-deoxy (DNA)

Turning to “5′-d(gcgttxtttgct)-3′ x = (B)β-T: (B)β-T modified oligonucleotide, antisense 12-mer DNA (SEQ ID NO: 1), one x = (B)β-T unit from compound B-13 (antisense GCGTTTTTTGCT; sugars from the 5' end d5 [(B)β]1 d6, backbone not given here)”, the “capability of forming a double strand with single-stranded DNA versus single-stranded RNA” value in data set [1] was “superior capability of forming a double strand together with single-stranded DNA over single-stranded RNA”.
Still for that read-out and setting: to “5′-d(gcgttxtttgct)-3′ x = (C)Hβ-T: (C)Hβ-T modified oligonucleotide, antisense 12-mer DNA (SEQ ID NO: 1), one x = (C)Hβ-T unit from compound C-8 (antisense GCGTTTTTTGCT; sugars from the 5' end d5 [(C)Hβ]1 d6, backbone not given here)” belongs “superior capability of forming a double strand together with single-stranded DNA over single-stranded RNA”.
On to “5′-d(gcgtxxxttgct)-3′ x = NMe-T: reference antisense 12-mer (SEQ ID NO: 3); three x = formula (9) unit, Base thymin-1-yl, R^b Me (antisense GCGTTTTTTGCT; sugars from the 5' end d4 [NMe]3 d5, backbone and methylation of C not given here)”, for which the Tm is 60 °C in data set [2] and 51 °C in data set [1].
The corresponding values for “5′-d(gcgxtxtxtgct)-3′ x = NMe-T: reference antisense 12-mer (SEQ ID NO: 2); three x = formula (9) unit, Base thymin-1-yl, R^b Me (antisense GCGTTTTTTGCT; sugars from the 5' end ddd[NMe]d[NMe]d[NMe]dddd, backbone and methylation of C not given here)” are 64 °C and 52 °C.

Source of the values: US20250059227A1, “ARTIFICIAL NUCLEIC ACID, METHOD FOR PRODUCING SAME, AND USE OF SAME” (RIKEN GENESIS CO., LTD., priority 2021, published 2025).
